This is an account of results in ChEMBL document CHEMBL4190342, “Identifying novel factor XIIa inhibitors with PCA-GA-SVM developed vHTS models” (Eur J Med Chem, 2017).

The target of assay [1] is T1, Coagulation factor XII (Homo sapiens, UniProt P00748).
T1 sequence (P00748 whole entry): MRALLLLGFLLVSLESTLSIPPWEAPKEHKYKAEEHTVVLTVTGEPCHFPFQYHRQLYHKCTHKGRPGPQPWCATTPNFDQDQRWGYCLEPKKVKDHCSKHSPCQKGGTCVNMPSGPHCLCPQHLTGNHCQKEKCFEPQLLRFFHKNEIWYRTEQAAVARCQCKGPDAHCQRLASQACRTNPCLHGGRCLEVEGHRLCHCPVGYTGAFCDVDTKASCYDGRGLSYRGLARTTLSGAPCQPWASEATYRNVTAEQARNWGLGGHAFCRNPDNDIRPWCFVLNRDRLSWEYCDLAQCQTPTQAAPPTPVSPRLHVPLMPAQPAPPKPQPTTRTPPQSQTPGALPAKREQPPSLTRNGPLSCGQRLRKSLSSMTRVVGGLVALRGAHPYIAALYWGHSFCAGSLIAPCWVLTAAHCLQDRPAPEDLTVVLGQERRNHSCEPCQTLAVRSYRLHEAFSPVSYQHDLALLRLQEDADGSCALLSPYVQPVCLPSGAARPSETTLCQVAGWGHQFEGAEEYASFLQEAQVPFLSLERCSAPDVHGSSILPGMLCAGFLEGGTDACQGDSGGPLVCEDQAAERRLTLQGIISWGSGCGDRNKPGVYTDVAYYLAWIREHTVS
The assay is described as follows: Inhibition of human factor 12a using Boc-Gly-Gln-Arg-AMC substrate incubated for 1 hr by fluorescence assay.

Assay [2] addresses T1, Coagulation factor XII. As to the kind of experiment: Inhibition of human factor 12a using Boc-Gly-Gln-Arg-AMC substrate incubated for 1 hr in presence of 0% Tween20 surfactant by fluorescence assay.
Assay [3] deals with T1, Coagulation factor XII. The assay is described as follows: Inhibition of human factor 12a using Boc-Gly-Gln-Arg-AMC substrate incubated for 1 hr in presence of 0.01% Tween20 surfactant by fluorescence assay.
For assay [4], the target named is T1, Coagulation factor XII. The assay is described as follows: Inhibition of human factor 12a using Boc-Gly-Gln-Arg-AMC substrate incubated for 1 hr in presence of 0.02% Tween20 surfactant by fluorescence assay.

Take `Cc1ccc(/C=C(\C#N)c2nc3ccccc3[nH]2)cc1`: the concentration for half-maximal inhibition (IC50) (usually the midpoint of a concentration-inhibition curve) in assay [1] was greater than 50 µM.
The same measure, in the same setting: as for `COc1ccccc1C(=O)n1nnc2ccccc21`, the figure is 7.21 µM.
The compound `COc1cc(OC)cc(C(=O)n2nnc3ccccc32)c1` registered a half-inhibitory concentration (IC50) in assay [1] of 25.4 µM.
Regarding `COc1ccccc1C(=O)n1nc(-c2cccnc2)nc1N`, the IC50 in assay [1] came to 0.68 µM; in assay [2], 1.85 µM; in assay [3], 2.63 µM; in assay [4], 2.43 µM.
Turning to `COc1ccc(/C=C(\C#N)c2nc3ccccc3[nH]2)cc1OC`, in assay [1], the half-inhibitory concentration (IC50) was greater than 50 µM.
Same read-out and setting: as for `N#C/C(=C\c1ccccc1)c1nc2ccccc2[nH]1`, the figure is greater than 50 µM; as for `COC(=O)c1ccc(/C=C(\C#N)c2nc3ccc(C)cc3[nH]2)cc1`, greater than 50 µM; as for `COc1ccc(/C=C(\C#N)c2nc3ccc(C)cc3[nH]2)cc1`, greater than 50 µM.
Same read-out and setting: the figure for `Cc1ccc2nc(/C(C#N)=C/c3ccccc3)[nH]c2c1` is greater than 50 µM.
`O=C(c1ccc(Cl)cc1)n1nnc2ccccc21`: the 50% inhibitory concentration (IC50) in assay [1] came to 31.7 µM.
The same measure, in the same setting: the figure for `COc1cccc(/C=C(\C#N)c2nc3ccccc3[nH]2)c1` is greater than 50 µM; for `O=C(c1ccc(Br)cc1)n1nnc2ccccc21` it is 0.6 µM.
Still for that read-out and setting: the figure for `O=C(c1ccco1)n1nnc2ccccc21` is 34.1 µM.
